The record followed here is the C3SDB collision cross section collection.

For data set [1] the following is noted: [M+H]+; instrument: TW.
The conditions of data set [2]: instrument: DT, single field, calibrated with Agilent tune mix (Agilent).
For data set [3] the following is noted: instrument: DT, stepped-field.

Consider `CC(C)(C)[C@H](O)[C@H](Cc1ccc(Cl)cc1)n1cncn1` (racemic) [Paclobutrazol], for which, in data set [1], the “collision cross section (N2)” value is reported as 168.73 Å².
Consider `O=C\1\C=C/[C@]3(/C(=C/1)CC[C@H]4[C@@H]2CCC(=O)[C@]2(CC[C@H]34)C)C` [1,4-androstadiene-3,17-dione], for which the “collision cross section (N2)” value in data set [1] came to 166.5 Å².
Same read-out and setting: next, `C[C@]12Cc3cn[nH]c3C[C@@H]1CC[C@@H]1[C@@H]2CC[C@@]2(C)[C@H]1C[C@H](O)[C@]2(C)O` [16B-hydroxystanozolol]: 192.1 Å²; `C[C@]12CCC(=O)C=C1CC[C@@H]1[C@@H]2CC[C@@]2(C)[C@H]1CC[C@]2(C)O` [17a-Methyltestosterone]: 173.7 Å².
Consider `C/C(=N\C#N)N(C)Cc1ccc(Cl)nc1` [Acetamiprid], for which the “collision cross section (N2)” value in data set [1] turned out to be 150.24 Å².
Same read-out and setting: next, `CC(=O)c1ccc2c(c1)N(CCCN(C)C)c1ccccc1S2` [Acetopromazine]: 160.5 Å²; `C[C@H]1C[C@H]2[C@@H]3CCC4=CC(=O)C=C[C@]4(C)[C@@]3(Cl)[C@@H](O)C[C@]2(C)[C@@]1(O)C(=O)CO` [Beclomethasone]: 189.2 Å².
The same measure, in the same setting: next, `CC(C)N1C(=O)N(c2ccccc2)CS/C1=N\C(C)(C)C` [Buprofezin]: 173.58 Å².
The same measure, in the same setting: next, `CC1=C(C(=O)Nc2ccccc2)SCCO1` [Carboxin]: 149.35 Å²; `CC(C(=O)O)c1ccc2c(c1)[nH]c1ccc(Cl)cc12` (stereo unspecified) [Carprofen]: 156.1 Å²; `Nc1cnn(-c2ccccc2)c(=O)c1Cl` [Chloridazon]: 141.59 Å².
As for `CN(C)C(=O)Nc1ccc(Oc2ccc(Cl)cc2)cc1` [Chloroxuron], the “collision cross section (N2)” value in data set [1] came out at 172.24 Å².
Same read-out and setting: next, `CN(C)CCCN1c2ccccc2Sc2ccc(Cl)cc21` [Chlorpromazine]: 169.1 Å².
Still for that read-out and setting: next, `CN(C)[C@@H]1C(O)=C(C(=N)O)C(=O)[C@@]2(O)C(O)=C3C(=O)c4c(O)ccc(Cl)c4[C@@](C)(O)[C@H]3C[C@@H]12` [Chlortetracycline]: 203.9 Å²; `Cc1ccc(/N=C(/O)N(C)C)cc1Cl` [Chlortoluron]: 145.96 Å².
Still for that read-out and setting: next, `CC(C)(C)NCC(O)c1cc(Cl)c(N)c(Cl)c1` (stereo unspecified) [Clenbuterol]: 159.2 Å²; `Cc1ccc(-c2c(Cl)nc(C#N)n2S(=O)(=O)N(C)C)cc1` [Cyazofamid]: 166.69 Å²; `CCN(CC)C(=O)c1cccc(C)c1` [DEET]: 142.48 Å².
For the molecule `COc1ccc(/C(=C/C(=O)N2CCOCC2)c2ccc(Cl)cc2)cc1OC` [Dimethomorph I], the “collision cross section (N2)” value in data set [1] was determined as 199.03 Å².
Same read-out and setting: next, `CCCCc1c(C)nc(NCC)[nH]c1=O` [Ethirimol]: 150.65 Å².
With `CCCCCCCCCCCCC=CC[C@@H](O)[C@H](CO[C@@H]1O[C@H](CO)[C@@H](O)C(O)C1O)NC(=O)CC=CCCCCCCCCCCCCCC` (stereo partly specified) [GlcCer(36:2)], the “collision cross section (N2)” value is reported as 283.4 Å² in data set [2] ([M+H]+) and 282.6 Å² in data set [3] ([M+Na]+).
For the molecule `CCCCCCCCCCCCCCCCCCCCCCCC(=O)N[C@@H](CO[C@@H]1O[C@H](CO)[C@@H](O)C(O)C1O)[C@H](O)CCCCCCCCCCCCCCC` (stereo partly specified) [GlcCer(42:0)], the “collision cross section (N2)” value in data set [2] ([M+HCOO]-) came out at 300.8 Å²; in data set [3] ([M+Na]+) it was 308.2 Å².
As to `CCCCCCCCCCCCC=CC[C@@H](O)[C@H](CO[C@@H]1O[C@H](CO)[C@@H](O)C(O)C1O)NC(=O)CC=CCCCCCCCCCCCCCCCCCCCC` (stereo partly specified) [GlcCer(42:2)], the “collision cross section (N2)” value in data set [2] ([M+HCOO]-) worked out at 298.5 Å²; in data set [2] ([M+H]+), 300.9 Å²; in data set [2] ([M+Na]+) it was 300.4 Å²; in data set [3] ([M+Na]+), 305.2 Å².
For `CCCC/C=C\C/C=C\CCCCCCCC(=O)O[C@H](COC(=O)CCCCCCC/C=C\CCCCCCCC)COP(=O)([O-])OCC[N+](C)(C)C` [PC(35:3)], the results for the “collision cross section (N2)” value in data set [2] ([M+H]+) and in data set [3] ([M+K]+) were 284.2 Å² and 296.1 Å², respectively.
`CCCCCCCCCC/C=C\CCCCCCCCCC(=O)O[C@H](COC(=O)CCCCCCCCCCCC)COP(=O)(O)OCCN` [PE(35:1)]: the “collision cross section (N2)” value in data set [2] ([M+H]+) was determined as 276.6 Å²; in data set [3] ([M+K]+) it was 283.6 Å²; in data set [3] ([M+Na]+), 282.9 Å².
For the molecule `CCCCCC=CCC=CCC=CCC=CCC=CCC=CCC(=O)OC[C@H](COP(=O)(O)OC[C@H](N)C(=O)O)OC(=O)CC=CCC=CCC=CCC=CCC=CCC=CCCCCC` [PS(48:12)], in data set [3] ([M+K]+), the “collision cross section (N2)” value was 313.6 Å².
For the molecule `CCC=CCC=CCC=CCC=CCC=CCC=CCC=CCC(=O)OC[C@H](COP(=O)(O)OC[C@H](N)C(=O)O)OC(=O)CC=CCC=CCC=CCC=CCC=CCC=CCC=CCC` [PS(48:14)], the “collision cross section (N2)” value is 311 Å² in data set [3] ([M+K]+) and 312 Å² in data set [3] ([M+Na]+).
`CCC(C)[C@H](NC(=O)[C@@H](N)CCC(N)=O)C(=O)N[C@@H](CO)C(=O)N[C@H](C(=O)N[C@@H](CCCNC(=N)N)C(=O)O)C(C)C` (stereo partly specified) [QISVR]: in data set [3] ([M+H]+), the “collision cross section (N2)” value is given as 241.4 Å².
As to `CCC(C)[C@H](NC(=O)[C@H](CO)NC(=O)[C@@H](NC(=O)[C@@H](N)CO)C(C)CC)C(=O)N[C@H](C(=O)NCC(=O)N[C@@H](CO)C(=O)N[C@@H](Cc1ccc(O)cc1)C(=O)N[C@H](C(=O)NCC(=O)N[C@@H](CC(N)=O)C(=O)N[C@@H](CCCNC(=N)N)C(=O)O)C(C)C)C(C)C` (stereo partly specified) [SISIVGSYVGNR], in data set [3] ([M+H]+), the “collision cross section (N2)” value worked out at 349.1 Å².
As to `CCCCCCCCCCCCC=CC[C@@H](O)[C@H](COP(=O)([O-])OCC[N+](C)(C)C)NC(=O)CC=CCCCCCCCCCCCCCCCCCCCCCC` [SM(44:2)], the “collision cross section (N2)” value in data set [3] ([M+Na]+) turned out to be 313.5 Å².
For the molecule `CC(C)[C@H](NC(=O)[C@@H](N)CO)C(=O)N[C@@H](Cc1ccc(O)cc1)C(=O)N[C@@H](CC(=O)O)C(=O)N[C@@H](CO)C(=O)N[C@@H](CCCNC(=N)N)C(=O)O` [SVYDSR], the “collision cross section (N2)” value in data set [3] ([M+H]+) was 258.4 Å².
In the case of `CCCCCCC[N+](CCCCCCC)(CCCCCCC)CCCCCCC` [TAA7], the “collision cross section (N2)” value in data set [3] ([M]+) is given as 236.4 Å².
Same read-out and setting: next, `CCCCCCCCCCCCCCCCCC[N+](CCCCCCCCCCCCCCCCCC)(CCCCCCCCCCCCCCCCCC)CCCCCCCCCCCCCCCCCC` [TAA18]: 379 Å².
Turning to `CC(C)C[C@H](NC(=O)[C@H](CO)NC(=O)[C@H](C)NC(=O)[C@@H](N)C(C)C)C(=O)N[C@@H](CCCNC(=N)N)C(=O)O` [VASLR], in data set [3] ([M+H]+), the “collision cross section (N2)” value amounted to 232.5 Å².
For the molecule `CC(C)C[C@H](NC(=O)[C@H](CC(=O)O)NC(=O)[C@@H](NC(=O)[C@H](CC(C)C)NC(=O)[C@@H](N)C(C)C)C(C)C)C(=O)N[C@@H](CCC(=O)O)C(=O)N[C@@H](CCCNC(=N)N)C(=O)O` [VLVDLER], in data set [3] ([M+H]+), the “collision cross section (N2)” value is 285.7 Å².
On the same count and under the same terms, next, `CCC(C)C(NC(=O)C(N)Cc1c[nH]c2ccccc12)C(=O)NC(CCCN=C(N)N)C(=O)O` (stereo unspecified) [WIR]: 215.4 Å²; `CC(C)C[C@H](NC(=O)[C@H](CC(=O)O)NC(=O)[C@@H](N)Cc1ccc(O)cc1)C(=O)N[C@@H](CC(=O)O)C(=O)N[C@@H](Cc1ccccc1)C(=O)N[C@@H](CCCCN)C(=O)O` [YDLDFK]: 272.4 Å².
